What all share (test): cell-based
The target of experiment [1] is T1, CB2 (Homo sapiens, UniProt P34972). The following applies: CB2, agonist mode; for pEC50: read-out: CB2 Agonist mode cAMP EC50; for Emax: read-out: CB2 Agonist mode cAMP Emax.
Experiment [2] deals with T1, CB2. The following applies: CB2, agonist mode; for pEC50: read-out: CB2 Agonist mode β-Arrestin EC50; for Emax: read-out: CB2 Agonist mode β-Arrestin Emax.
Experiment [3] deals with T2, hCB1 (Homo sapiens, UniProt P21554). Set-up: host or cells: CHO-K1. The procedure: HitHunter cAMP assay: Inhibition of forskolin-stimulated cAMP was determined using the DiscoveRx HitHunter assay in hCB1R CHO-K1 cells. Cells (20,000 cells/well in low-volume 96 well plates) were incubated overnight in Opti-MEM (Invitrogen) containing 1% FBS at 37° C. and 5% CO2. Following this, Opti-MEM media was removed and replaced with cell assay buffer (DiscoveRx) and cells were co-treated at 37° C. with 10 μM forskolin and hCB1R ligands (0.10 nM-10 μM) for 30 min or 90 min cAMP antibody solution and cAMP working detection solutions were then added to cells according to the manufacturer's directions (DiscoveRx®) and cells were incubated for 60 min at room temperature. cAMP solution A was added according to the manufacturer's directions (DiscoveRx®) and cells were incubated for an additional 60 min at room temperature before chemiluminescence was measured on a Cytation 5 plate reader (top read, gain 200, integration time 10,000 ms).
T2 sequence (P21554 whole entry): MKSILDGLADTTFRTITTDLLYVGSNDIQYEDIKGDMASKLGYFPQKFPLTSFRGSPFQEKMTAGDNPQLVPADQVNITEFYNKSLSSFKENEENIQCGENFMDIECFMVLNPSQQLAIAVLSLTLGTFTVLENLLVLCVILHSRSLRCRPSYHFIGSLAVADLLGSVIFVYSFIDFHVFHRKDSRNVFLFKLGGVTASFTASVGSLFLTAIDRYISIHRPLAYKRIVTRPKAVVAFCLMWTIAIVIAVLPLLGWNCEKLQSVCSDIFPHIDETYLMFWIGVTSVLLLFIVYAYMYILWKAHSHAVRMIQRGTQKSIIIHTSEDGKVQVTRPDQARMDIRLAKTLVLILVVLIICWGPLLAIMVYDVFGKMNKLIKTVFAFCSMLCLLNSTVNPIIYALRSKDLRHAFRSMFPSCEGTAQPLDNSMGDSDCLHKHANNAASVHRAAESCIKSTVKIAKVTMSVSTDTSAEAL

Experiment [4] deals with T2, hCB1. Set-up: host or cells: CHO-K1 PathHunter. The procedure: PathHunter CB1 β-Arrestin Assay: Chinese hamster ovary K1 (CHO-K1)-PathHunter hCB1 β-arrestin cells (DiscoveRx, Fremont, CA) were seeded at 5000 cells/well in 384-well plates 24 h before use and incubated at 37° C., 5% CO2. Compounds were dissolved in dimethyl sulfoxide (DMSO) and diluted in optimized cell culture (OCC) media. Agonist EC80 was determined directly from an agonist dose—response curve (data not shown). […] Five microliters of allosteric modulator or vehicle solution was added to each well at the appropriate concentrations and incubated for 30 min. Five microliters of agonist was then added to each well followed by a 90 min incubation. Fifteen microliters of detection reagent was then added followed by further 60 min incubation at room temperature. Chemiluminescence was measured on a standard luminescence plate reader as relative light units (RLU). Basal RLU was defined as zero. […] Data were analyzed using the fourparameter variable-slope and allosteric EC50 shift nonlinear regression equations in Prism 5.0 (GraphPad, San Diego, CA).

[5] abbreviates: CB1, PAM mode, read-out: CB1 PAM mode cAMP EC50.
[6] abbreviates: CB1, agonist mode, read-out: CB1 Agonist mode cAMP EC50.
Setting [7] is: read-out: CB1 Agonist mode cAMP Emax, CB1, agonist mode.
Setting [8] is: read-out: CB1 PAM mode cAMP Emax, CB1, PAM mode.
Where [9] appears, read: CB1, PAM mode, read-out: CB1 PAM mode β-Arrestin EC50.
[10] abbreviates: CB1, agonist mode, read-out: CB1 Agonist mode β-Arrestin EC50.
[11] abbreviates: read-out: CB1 Agonist mode β-Arrestin Emax.
The mark [12] stands for this setting: read-out: CB1 PAM mode β-Arrestin Emax.

Experimental findings from patent publication US12486228B2, “N-substituted indoles and use as allosteric modulators of cannabinoid receptors” (priority 2018, dated 2025) are described below.

Structures are written as SMILES. pEC50: −log10 of the molar value. Read-outs that look alike come from different tables or passages of the source.

T1 sequence (P34972 whole entry, species assumed): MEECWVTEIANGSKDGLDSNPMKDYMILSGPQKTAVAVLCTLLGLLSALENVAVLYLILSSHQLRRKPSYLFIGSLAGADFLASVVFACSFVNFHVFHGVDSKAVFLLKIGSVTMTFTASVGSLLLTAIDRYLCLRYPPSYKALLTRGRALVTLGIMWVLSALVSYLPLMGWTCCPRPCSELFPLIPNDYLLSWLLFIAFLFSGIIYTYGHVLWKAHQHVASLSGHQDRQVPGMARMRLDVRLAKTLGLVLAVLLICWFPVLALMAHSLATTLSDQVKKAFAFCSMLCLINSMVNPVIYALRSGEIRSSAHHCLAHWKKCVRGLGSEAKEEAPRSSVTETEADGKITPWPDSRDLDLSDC

On to `O=C(O)CC=C(c1ccccc1)c1cn(-c2ccccc2)c2ccccc12` (mixture of isomers) [Compound 16, (E and Z)-4-Phenyl-4-(1-phenyl-1H-indol-3-yl)but-3-enoic acid], for which the negative-log EC50 (pEC50) at CB2 [1] is 6.44; at CB2 [2] it was below 5.00; on hCB1 [3] (setting [5]), 6.03; at hCB1 [3] (setting [6]), 6.16; at hCB1 [4] (setting [9]), below 5.00; at hCB1 [4] (setting [10]), below 5.00. Also, the Emax at CB2 [1] came to 80%; on CB2 [2], 0%; on hCB1 [3] (setting [7]), 94%; on hCB1 [3] (setting [8]) it was 104%; on hCB1 [4] (setting [11]) it was 0%; on hCB1 [4] (setting [12]) it was 0%.
Consider `CC(CC(c1ccccc1)c1cn(-c2ccccc2)c2ccccc12)C(=O)O` (racemic) [Compound 11, (±)-2-Methyl-4-phenyl-4-(1-phenyl-1H-indol-3-yl)butanoic acid], for which the negative-log EC50 (pEC50) is 5.72 at hCB1 [3] (setting [5]), 5.90 at hCB1 [3] (setting [6]), below 5.00 at hCB1 [4] (setting [9]) and below 5.00 at hCB1 [4] (setting [10]). In addition, the maximal response (Emax) at hCB1 [3] (setting [7]) worked out at 62%; at hCB1 [3] (setting [8]), 100%; at hCB1 [4] (setting [11]), 0%; at hCB1 [4] (setting [12]) it was 0%.
`CC(CC(c1ccccc1)c1cn(-c2ccccc2)c2ccccc12)C(=O)O` (racemic) [Compound 12, (±)-2-Methyl-4-phenyl-4-(1-phenyl-1H-indol-3-yl)butanoic acid]: at hCB1 [3] (CB1, PAM mode), the “CB1 PAM mode cAMP Emax” value is “(101) %”. For the same compound, the pEC50 at hCB1 [3] (setting [5]) is 6.15; at hCB1 [3] (setting [6]) it was 5.97; on hCB1 [4] (setting [9]), below 5.00; at hCB1 [4] (setting [10]), below 5.00. Also, the “CB1 Agonist mode cAMP Emax” value at hCB1 [3] (CB1, agonist mode) is listed as “(60) %”. Further, the “CB1 PAM mode β-Arrestin Emax” value at hCB1 [4] (CB1, PAM mode) was “(0) %”. In addition, the “CB1 Agonist mode β-Arrestin Emax” value at hCB1 [4] (CB1, agonist mode) is on record as “(0) %”.
For the compound `O=C(O)C(c1ccccc1)c1cn(-c2ccccc2)c2ccccc12` (centres unmarked) [Compound 7, 2-Phenyl-2-(1-phenyl-1H-indol-3-yl)acetic acid], the pEC50 was 5.38 on hCB1 [3] (setting [5]) and below 5.00 on hCB1 [4] (setting [9]). In addition, the maximal response (Emax) on hCB1 [3] (setting [8]) came to 78.9%; at hCB1 [4] (setting [12]), 0%.
Taken in the same sequence, the figures for `O=C(O)CC(c1ccccc1)c1cn(-c2ccccc2)c2ccccc12` (centres unmarked) [Compound 8, 3-Phenyl-3-(1-phenyl-1H-indol-3-yl)propanoic acid] were 6.29, below 5.00, 144% and 0%.
On to `O=C(O)C(C(=O)O)C(c1ccccc1)c1cn(-c2ccccc2)c2ccccc12` (centres unmarked) [Compound 9, 2-(Phenyl(1-phenyl-1H-indol-3-yl)methyl)malonic acid], for which the figures for the negative-log EC50 (pEC50) on hCB1 [3] (setting [5]) and at hCB1 [4] (setting [9]) were 5.89 and below 5.00, respectively. For the same compound, the figures for the Emax at hCB1 [3] (setting [8]) and at hCB1 [4] (setting [12]) were 158% and 0%, respectively.
Taken in the same sequence, the figures for `CCOC(=O)C(C(=O)O)C(c1ccccc1)c1cn(-c2ccccc2)c2ccccc12` (centres unmarked) [Compound 10, 3-Ethoxy-3-oxo-2-(phenyl(1-phenyl-1H-indol-3-yl)methyl)propanoic acid] were below 5.00, below 5.00, 6.98% and 4.59%.
On the same counts, the results for `CCOC(=O)CCC(c1ccccc1)c1cn(-c2ccccc2)c2ccccc12` (centres unmarked) [Compound 13, Ethyl 4-phenyl-4-(1-phenyl-1H-indol-3-yl)butanoate] are below 5.00, below 5.00, 0% and 0%.
Consider `O=C(O)/C=C\C(c1ccccc1)c1cn(-c2ccccc2)c2ccccc12` (centres unmarked) [Compound 15, (Z)-4-phenyl-4-(1-phenyl-1H-indol-3-yl)but-2-enoic acid], for which the negative-log EC50 (pEC50) at CB2 [1] was 5.98; on CB2 [2], below 5.00; on hCB1 [3] (setting [5]), 6.19; at hCB1 [3] (setting [6]) it was 6.30; on hCB1 [4] (setting [9]), below 5.00; at hCB1 [4] (setting [10]), below 5.00. Moreover, the maximum response (Emax) turned out to be 81% at CB2 [1]; 0% on CB2 [2]; 86% on hCB1 [3] (setting [7]); 84% at hCB1 [3] (setting [8]); 0% at hCB1 [4] (setting [11]); 0% on hCB1 [4] (setting [12]).
`Cc1ccc2c(C(CCC(=O)O)c3ccccc3)cn(-c3ccccc3)c2c1` (centres unmarked) [Compound 17, 4-(6-Methyl-1-phenyl-1H-indol-3-yl)-4-phenylbutanoic acid]: the pEC50 is 6.00 on CB2 [1]; below 5.00 on CB2 [2]; 5.84 at hCB1 [3] (setting [5]); 5.90 at hCB1 [3] (setting [6]); below 5.00 on hCB1 [4] (setting [9]); below 5.00 on hCB1 [4] (setting [10]). In addition, the Emax is 74% at CB2 [1]; 0% at CB2 [2]; 73% at hCB1 [3] (setting [7]); 93% at hCB1 [3] (setting [8]); 0% at hCB1 [4] (setting [11]); 0% on hCB1 [4] (setting [12]).
For `O=C(O)CCC(c1ccccc1)c1cn(Cc2ccccc2)c2ccccc12` (centres unmarked) [Compound 18, 4-(1-Penzyl-1H-indol-3-yl)-4-phenylbutanoic acid], the pEC50 was 6.39 at CB2 [1]; below 5.00 at CB2 [2]; 6.21 on hCB1 [3] (setting [5]); 5.98 at hCB1 [3] (setting [6]); below 5.00 at hCB1 [4] (setting [9]); below 5.00 at hCB1 [4] (setting [10]). Besides, the maximal response (Emax) at CB2 [1] was 64%; on CB2 [2] it was 0%; on hCB1 [3] (setting [7]), 87%; at hCB1 [3] (setting [8]) it was 97%; at hCB1 [4] (setting [11]) it was 0%; on hCB1 [4] (setting [12]) it was 0%.
For `OC(c1ccccc1)c1cn(-c2ccccc2)c2ccccc12` (centres unmarked) [Compound 30, Phenyl(1-phenyl-1H-indol-3-yl)methanol], the negative-log EC50 (pEC50) on hCB1 [3] (setting [5]) and at hCB1 [4] (setting [9]) was below 5.00 throughout. Moreover, the Emax at hCB1 [3] (setting [8]) and at hCB1 [4] (setting [12]) was 0% in each case.
Regarding `OCC(c1ccccc1)c1cn(-c2ccccc2)c2ccccc12` (centres unmarked) [Compound 31, 2-Phenyl-2-(1-phenyl-1H-indol-3-yl)ethan-1-ol], the negative-log EC50 (pEC50) at hCB1 [3] (setting [5]) and on hCB1 [4] (setting [9]) was below 5.00 each time. Moreover, the figures for the Emax on hCB1 [3] (setting [8]) and on hCB1 [4] (setting [12]) were 1.31% and 0%, respectively.
`OCCC(c1ccccc1)c1cn(-c2ccccc2)c2ccccc12` (centres unmarked) [Compound 32, 3-Phenyl-3-(1-phenyl-1H-indol-3-yl)propan-1-ol]: the pEC50 on hCB1 [3] (setting [5]) and at hCB1 [4] (setting [9]) was below 5.00 each time. Besides, the Emax on hCB1 [3] (setting [8]) was 27.1%; on hCB1 [4] (setting [12]), 0%.
Consider `OCCCC(c1ccccc1)c1cn(-c2ccccc2)c2ccccc12` (centres unmarked) [Compound 34, 4-Phenyl-4-(1-phenyl-1H-indol-3-yl)butan-1-ol], for which the negative-log EC50 (pEC50) on hCB1 [3] (setting [5]) and at hCB1 [4] (setting [9]) was below 5.00 each time. The Emax was 0% at hCB1 [3] (setting [8]) and 5% at hCB1 [4] (setting [12]).
For `OCC(c1ccccc1)c1cn(-c2ccccc2)c2ccc(Cl)cc12` (centres unmarked) [Compound 35, 2-(5-Chloro-1-phenyl-1H-indol-3-yl)-2-phenylethan-1-ol], the pEC50 on hCB1 [3] (setting [5]) and on hCB1 [4] (setting [9]) was below 5.00 in each case. Further, the results for the Emax at hCB1 [3] (setting [8]) and at hCB1 [4] (setting [12]) were 2.81% and 0%, respectively.
Take `NC(=O)CC(c1ccccc1)c1cn(-c2ccccc2)c2ccccc12` (centres unmarked) [Compound 38, 3-Phenyl-3-(1-phenyl-1H-indol-3-yl)propanamide]: the pEC50 on hCB1 [3] (setting [5]) and at hCB1 [4] (setting [9]) was below 5.00 each time. In addition, the maximal effect (Emax) at hCB1 [3] (setting [8]) was determined as 27.1%; at hCB1 [4] (setting [12]), 0%.
Consider `c1ccc(C(Cc2nnn[nH]2)c2cn(-c3ccccc3)c3ccccc23)cc1` (centres unmarked) [Compound 39, 1-Phenyl-3-(1-phenyl-2-(1H-tetrazol-5-yl)ethyl)-1H-indole], for which the pEC50 was 6.37 on hCB1 [3] (setting [5]) and below 5.00 on hCB1 [4] (setting [9]). Also, the Emax at hCB1 [3] (setting [8]) came out at 94%; at hCB1 [4] (setting [12]) it was 0%.
Consider `O=C(c1ccccc1)c1cn(-c2ccccc2)c2ccccc12` [Compound 40, Phenyl(1-phenyl-1H-indol-3-yl)methanone], for which the pEC50 on hCB1 [3] (CB1 PAM mode cAMP EC50, CB1, PAM mode) is below 5.00; at hCB1 [4] it was below 5.00. The Emax on hCB1 [3] (setting [8]) came out at 11.7%; on hCB1 [4] (setting [12]) it was 0.273%.
